Reference: patent US20210052705A1, “METHOD OF DRUG […] FOR PTH, PTHrP AND RELATED PEPTIDES” (Radius Health, Inc., priority 2011, published 2021)
Read-outs that look alike come from different tables or passages of the source.

Legend:
[1] = male, Sprague Dawley, rat, in vivo
in vivo = conditions: Sprague-Dawley, rat, 13.6 ug
clinical = conditions: female, human, in vivo, LS Mean; for AUC(0-inf): AUC0-inf; for AUC(0-t): AUC0-t
[2] = set-up: AUC5-90, Mean: unit not given beside the values; conditions: Sprague-Dawley, rat, in vivo, 13.6 ug
[3] = female, human, in vivo

AUC(0-t) ([1]; 20 ug/kg): 166 ng·min/mL | Cmax ([1]; 20 ug/kg): 7.15 ng/mL | Cmax (20 μg/kg Dose) ([1]; 20 ug/kg): 7.15 ng/mL | T1/2 ([1]; 20 ug/kg): 14 min | Tmax ([1]; 20 ug/kg): 15 min | Concentrations of Peptide in Serum ([1]; 26.2 ug, 5 min): 45.29 ng/mL | Concentrations of Peptide in Serum ([1]; 26.2 ug, 0.25 h): 59.72 ng/mL | Concentrations of Peptide in Serum ([1]; 26.2 ug, 0.5 h): 20.15 ng/mL | Concentrations of Peptide in Serum ([1]; 26.2 ug, 0.75 h): 11.63 ng/mL | T1/2 ([1]; 27 ug): 26 min | Tmax ([1]; 27 ug): 15 min | Concentrations of Peptide in Serum ([1]; 27 ug, 5 min): 21.34 ng/mL | Concentrations of Peptide in Serum ([1]; 27 ug, 0.25 h): 31.08 ng/mL | Concentrations of Peptide in Serum ([1]; 27 ug, 0.5 h): 12.43 ng/mL | Concentrations of Peptide in Serum ([1]; 27 ug, 0.75 h): 6.99 ng/mL | Concentrations of Peptide in Serum ([1]; 32 ug, 5 min): 37.76 ng/mL | Concentrations of Peptide in Serum ([1]; 32 ug, 10 min): 29.94 ng/mL | Concentrations of Peptide in Serum ([1]; 32 ug, 0.25 h): 37.48 ng/mL | Concentrations of Peptide in Serum ([1]; 32 ug, 0.5 h): 15.99 ng/mL | Concentrations of Peptide in Serum ([1]; 32 ug, 0.75 h): 8.39 ng/mL | AUC(0-t) ([1]; 141.9 ug): 5199 ng·min/mL | Cmax ([1]; 141.9 ug): 153.74 ng/mL | Tmax ([1]; 141.9 ug): 15 min | % F ([1]; 386.5 ug): 24% | AUC(0-t) ([1]; 386.5 ug): 6899 ng·min/mL | Cmax ([1]; 386.5 ug): 179.02 ng/mL | T1/2 ([1]; 386.5 ug): 16 min | Tmax ([1]; 386.5 ug): 15 min | AUC (in vivo; AUC5-90, Mean): 3.68 ng·h/mL | Cmax (in vivo; Cmax, Mean): 9.7 ng/mL | level at 5 min (in vivo; Concentration in Serum at 5 min, Mean): 8.8 ng/mL | level at 0.25 h (in vivo; Concentration in Serum at 15 min, Mean): 8.6 ng/mL | level at 0.5 h (in vivo; Concentration in Serum at 30 min, Mean): 6 ng/mL | Tmax (in vivo; Tmax, Mean): 9 min | AUC(0-inf) (clinical; 100 ug): 0.0885 ng·h/mL | AUC(0-t) (clinical; 100 ug): 0.112 ng·h/mL | Cmax (clinical; 100 ug): 0.366 ng/mL | AUC(0-inf) (clinical; 150 ug): 0.119 ng·h/mL | AUC(0-t) (clinical; 150 ug): 0.107 ng·h/mL | Cmax (clinical; 150 ug): 0.315 ng/mL | AUC(0-inf) (clinical; 200 ug): 0.11 ng·h/mL | AUC(0-t) (clinical; 200 ug): 0.0975 ng·h/mL | Cmax (clinical; 200 ug): 0.337 ng/mL | AUC5-90, Mean [2]: 282 | Cmax, Mean [2]: 12.3 ng/mL | Tmax, Mean [2]: 9 min | Concentration in Serum at 5 min, Mean ([2]; 5 min): 11.8 ng/mL | Concentration in Serum at 15 min, Mean ([2]; 0.25 h): 10.5 ng/mL | Concentration in Serum at 30 min, Mean ([2]; 0.5 h): 7.1 ng/mL | AUC0-inf, LS Mean ([3]; 150 ug): 0.15742 ng·h/mL | AUC0-t, LS Mean ([3]; 150 ug): 0.14285 ng·h/mL | Cmax, LS Mean ([3]; 150 ug): 0.31197 ng/mL | AUC0-inf, LS Mean ([3]; 200 ug): 0.19016 ng·h/mL | AUC0-t, LS Mean ([3]; 200 ug): 0.16679 ng·h/mL | Cmax, LS Mean ([3]; 200 ug): 0.48945 ng/mL
SMILES: CC[C@H](C)[C@H](NC(=O)[C@H](CO)NC(=O)[C@H](CCCCN)NC(=O)CNC(=O)[C@H](CCCCN)NC(=O)[C@H](CC(=O)O)NC(=O)[C@H](Cc1cnc[nH]1)NC(=O)[C@H](CC(C)C)NC(=O)[C@H](CC(C)C)NC(=O)[C@H](CCC(N)=O)NC(=O)[C@H](Cc1cnc[nH]1)NC(=O)[C@H](CCC(=O)O)NC(=O)[C@H](CO)NC(=O)[C@@H](NC(=O)[C@H](C)N)C(C)C)C(=O)N[C@@H](CCC(N)=O)C(=O)N[C@@H](CC(=O)O)C(=O)N[C@@H](CC(C)C)C(=O)N[C@@H](CCCNC(=N)N)C(=O)N[C@@H](CCCNC(=N)N)C(=O)N[C@@H](CCCNC(=N)N)C(=O)N[C@@H](CCC(=O)O)C(=O)N[C@@H](CC(C)C)C(=O)N[C@@H](CC(C)C)C(=O)N[C@@H](CCC(=O)O)C(=O)N[C@@H](CCCCN)C(=O)N[C@@H](CC(C)C)C(=O)N[C@@H](CC(C)C)C(=O)NC(C)(C)C(=O)N[C@@H](CCCCN)C(=O)N[C@@H](CC(C)C)C(=O)N[C@@H](Cc1cnc[nH]1)C(=O)N[C@H](C(=O)N[C@@H](C)C(N)=O)[C@@H](C)O [Peptide]
